Experimental data published in US20250164476A1, “COLORIMETRIC ASSAY USING DITHIOLATE-GRAFTED NANOPARTICLES FOR HIGH-THROUGHPUT SCREENING OF CRYOPROTECTANTS” (The Government of the United States of America, as …, priority 2023, published 2025).

How the values were obtained:
[1] = Ligand effect on the freezing of AuNP (96-well serial dilution); conditions: for appearance of AuNP samples in presence of test ligand: before freezing, 10 nM AuNP in 1×PBS (FIG. 5A); for colloidal color of AuNP in frozen state: frozen at −20° C. for 2 hours, serial dilution, ligands from 1 mM, sucrose 40% (FIG. 5B); for type of AuNP aggregation on freezing: conclusion from frozen and post-thaw states; for colloidal color / optical properties of AuNP at post-thaw state: thawed at room temperature for 30 minutes (FIG. 5C)
Procedure: In a sample well plate series (96 wells), a 2 millimolar (mM) stock solution of the test ligands was mixed with AuNP, resulting in a 1 mM AuNP-probe solution which was deposited as a highest concentration in respective top wells (using two columns or lanes of wells for each ligand), and was serially diluted by half using 2×PBS buffer for every following well. More specifically, the stock ligand concentration, 1 mM, was diluted by ½, ¼, ⅛, 1/16, 1/32, 1/64, 1/128, and 1/256 times (from top to bottom) by using 2×PBS. After finishing serial dilution of the target materials (four ligands, here), 50 microliters (μL) of 20 nM AuNP were added to each well of the well plate series to make a 10 nM AuNP-probe in 1×PBS in each well as a final concentration. […] See the resulting sample well plate series in FIG. 5A.
FIG. 5B is an image of the 96 well plate series of FIG. 5A after freezing. Specifically, the 96 well plate series was frozen at −20° C. for 2 hours, resulting in the frozen state of the samples depicted in FIG. 5B.
FIG. 5C is an image of the 96 well plate series of FIG. 5B after thawing. More specifically, the 96 well plate series of FIG. 5B was thawed at room temperature for 30 minutes, resulting the post-thaw state of FIG. 5C.

[2] = AuNP-TA/NTA probe colorimetric HTS titration assay for anti-icing activity; conditions: FIG. 8C; 0.2 mg/ml serially diluted, 1×PBS, frozen at −20° C. for 2 hours, thawed
Procedure: FIG. 6A is an image of a 96 well plate series titration test, utilizing an AuNP-TA/NTA probe in different test solutions at room temperature. From top to bottom there are six different testing targets: (1) AFP 0.3 mg/ml, (2) polyvinyl alcohol (PVA) 10K 0.3%, (3) bovine serum albumin (BSA) 0.3 mg/ml, (4) ethylene glycol (EG) 50%, (5) glycerol (Gly) 50%, and (6) 80 mg/ml zirconium acetate (ZrA). The buffer was 1×PBS except for the last sample ZrA, which was in 40 mM HCl (because ZrA is only active in acidic conditions). The target samples were diluted in rows by ½, ¼, ⅛, 1/16, 1/32, 1/64, 1/128, 1/256, 1/512, 1/1024, 1/2048 and 1/4096 times (from left to right) using 2×PBS or 80 mM HCl (for ZrA). Next, 50 μL of target materials were mixed with 50 μL of 20 nM AuNP-probe to make a final 1×PBS, or 40 mM HCl for the last sample, and 10 nM of AuNP probe in each well. […]
In general, titration is a common laboratory method for quantitative chemical analysis to determine the concentration of an identified analyte in terms of activity. […] Thus, it is necessary to obtain a quantified value or parameter in order to compare different test results in different conditions. […]

[3] = sucrose-based sandwich assay
Procedure: More specifically, FIGS. 10A-10F show respective anti-icing samples tested including: sucrose 40% (as a negative control), AFP (RiAFP) 0.12 mg/ml, BSA 0.12 mg/ml, 10K PVA 0.12 mg/ml, 10K PVA 1 mg/ml, and zirconium acetate (ZrN) 40 mg/ml. The buffer utilized was 0.5×PBS, with the exception of ZrN which was in 80 mM HCl. For the IRI assay, each sample was prepared with 40% sucrose as a final concentration. The following procedures were performed for each sample. Initially, 2 μL of sample was dropped between two round coverslips (borosilicate, d=1.3˜1.5 cm) and sealed with grease. The sample was then inserted into a Linkam® Scientific cryostage with liquid nitrogen (LN2) control. The sample was first frozen at −50° C. for 1 min, then the temperature was increased to −20° C. at a rate of 10° C./min, followed by a slow increase in temperature to −10° C. at a speed of 1° C./min. A sample image was then taken after annealed at −10° C. for 30 minutes without interruption.

appearance of AuNP samples in presence of test ligand [1] | Compound | colloidal color of AuNP in frozen state [1] | type of AuNP aggregation on freezing [1] | colloidal color / optical properties of AuNP at post-thaw state [1] | anti-icing effects from concentration-dependent color changes [2] | anti-icing effect in traditional IRI test [3]
well-dispersed without any color changes | OC[C@H]1O[C@@](CO)(O[C@H]2O[C@H](CO)[C@@H](O)[C@H](O)[C@H]2O)[C@@H](O)[C@@H]1O [sucrose] | changed from the original red (top well, at the highest concentration) to purple, and finally to pale purple |  |  |  | 
well-dispersed without any color changes | sulfonate modified thioctic acid [TA-SO3] | red at the highest concentration without any aggregation | reversible aggregation | almost fully recovered their intrinsic optical properties |  | 

Second part, the compound before the results:

Compound | appearance of AuNP samples in presence of test ligand [1] | colloidal color of AuNP in frozen state [1] | type of AuNP aggregation on freezing [1] | colloidal color / optical properties of AuNP at post-thaw state [1] | anti-icing effects from concentration-dependent color changes [2] | anti-icing effect in traditional IRI test [3]
nitrilotriacetic acid modified thioctic acid [TA-NTA] | well-dispersed without any color changes | turned translucent at the highest concentrations | reversible aggregation | almost fully recovered their intrinsic optical properties |  | 
bovine serum albumin [BSA] |  |  |  |  | low-level anti-icing effects | confirmed
O=C(O)CCCCC1CCSS1 (stereo not shown) [TA, thioctic acid] | well-dispersed without any color changes | turned translucent at the highest concentrations | irreversible aggregation | remained pale at the highest concentration |  | 
